Data from US11448964B2, “Coating compositions for use with an overcoated photoresist” (Rohm and Haas Electronic Materials Korea Ltd., priority 2016, dated 2022).

Assay: Solubility of thermal acid generators in organic solvents (super-saturated solution, shaken 16 hours, filtered, solid content by Thermal Gravimetric Analysis)
Assay type: physicochemical
Settings: room temperature, TGA; for Solubility in HBM (solid content of filtered solution): 2-hydroxyisobutyric acid methyl ester (HBM); for Solubility in EL (solid content of filtered solution): ethyl lactate (EL); for Solubility in PGME (solid content of filtered solution): propylene glycol methyl ether (PGME)

| Structure (SMILES) | Solubility in HBM (solid content of filtered solution) [wt. %] | Solubility in EL (solid content of filtered solution) [wt. %] | Solubility in PGME (solid content of filtered solution) [wt. %] |
| --- | --- | --- | --- |
| Cc1ccccn1 [Example 1, 2-methylpyridin-1-ium 4-methylbenzenesulfonate] | 20 | 29 | 27 |
| COc1ccncc1 [Example 2, 4-methoxypyridin-1-ium 4-methylbenzenesulfonate] | 18 | 32 | 26 |
